{
  "source": "PubChem BioAssay (NCI)",
  "assay_in_all_cases": "DTP human tumour cell line panel, 48 h",
  "key": {"A498 renal": {"test_system": "A498 renal"}, "ACHN renal": {"test_system": "ACHN renal"}, "CAKI-1 renal": {"test_system": "CAKI-1 renal"}, "HCC-2998 colon": {"test_system": "HCC-2998 colon"}, "HCT-15 colon": {"test_system": "HCT-15 colon"}, "HOP-62 NSCLC": {"test_system": "HOP-62 NSCLC"}, "K-562 leukemia": {"test_system": "K-562 leukemia"}, "KM12 colon": {"test_system": "KM12 colon"}, "SK-MEL-2 melanoma": {"test_system": "SK-MEL-2 melanoma"}, "SR leukemia": {"test_system": "SR leukemia"}, "SW-620 colon": {"test_system": "SW-620 colon"}},
  "note": "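Compound exposure: 48 hours, 5 concentrations, 96-well plates. Here, GI50 denotes the concentration required for 50% inhibition of growth. At the TGI there is no net growth.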",
  "data": [
    {"smiles": "COC(=O)/C=c1/c2ccccc2n2nc3ccccc3c12", "values": [
      {"measurement": "TGI", "setting": "A498 renal", "value": 93.3, "unit": "µM"},
      {"measurement": "TGI", "setting": "ACHN renal", "value": "> 100", "unit": "µM"},
      {"measurement": "TGI", "setting": "CAKI-1 renal", "value": "> 100", "unit": "µM"},
      {"measurement": "TGI", "setting": "HCC-2998 colon", "value": "> 100", "unit": "µM"},
      {"measurement": "TGI", "setting": "HCT-15 colon", "value": "> 100", "unit": "µM"},
      {"measurement": "TGI", "setting": "HOP-62 NSCLC", "value": "> 100", "unit": "µM"},
      {"measurement": "TGI", "setting": "K-562 leukemia", "value": "> 100", "unit": "µM"},
      {"measurement": "TGI", "setting": "KM12 colon", "value": "> 100", "unit": "µM"},
      {"measurement": "TGI", "setting": "SK-MEL-2 melanoma", "value": "> 100", "unit": "µM"},
      {"measurement": "TGI", "setting": "SR leukemia", "value": 17.1, "unit": "µM"},
      {"measurement": "TGI", "setting": "SW-620 colon", "value": "> 100", "unit": "µM"}
    ]},
    {"smiles": "Cc1cccc2c1NC(=S)[C@@H]1CCCN1C2=O", "values": [
      {"measurement": "TGI", "setting": "A498 renal", "value": "> 100", "unit": "µM"},
      {"measurement": "TGI", "setting": "ACHN renal", "value": "> 100", "unit": "µM"},
      {"measurement": "TGI", "setting": "CAKI-1 renal", "value": "> 100", "unit": "µM"},
      {"measurement": "TGI", "setting": "HCC-2998 colon", "value": "> 100", "unit": "µM"},
      {"measurement": "TGI", "setting": "HCT-15 colon", "value": "> 100", "unit": "µM"},
      {"measurement": "TGI", "setting": "HOP-62 NSCLC", "value": "> 100", "unit": "µM"},
      {"measurement": "TGI", "setting": "K-562 leukemia", "value": "> 100", "unit": "µM"},
      {"measurement": "TGI", "setting": "KM12 colon", "value": "> 100", "unit": "µM"},
      {"measurement": "TGI", "setting": "SK-MEL-2 melanoma", "value": "> 100", "unit": "µM"},
      {"measurement": "TGI", "setting": "SR leukemia", "value": "> 100", "unit": "µM"},
      {"measurement": "TGI", "setting": "SW-620 colon", "value": "> 100", "unit": "µM"}
    ]},
    {"smiles": "CC[n+]1c(/C=C/c2ccc(N(CCCl)CCCl)cc2)ccc2cc(NC(=O)/C=C/c3ccccc3)ccc21", "values": [
      {"measurement": "TGI", "setting": "A498 renal", "value": 27.4, "unit": "µM"},
      {"measurement": "TGI", "setting": "ACHN renal", "value": "> 56.6", "unit": "µM"},
      {"measurement": "TGI", "setting": "CAKI-1 renal", "value": 19.2, "unit": "µM"},
      {"measurement": "TGI", "setting": "HCC-2998 colon", "value": 1.37, "unit": "µM"},
      {"measurement": "TGI", "setting": "HCT-15 colon", "value": "> 94.7", "unit": "µM"},
      {"measurement": "TGI", "setting": "HOP-62 NSCLC", "value": 1.74, "unit": "µM"},
      {"measurement": "TGI", "setting": "K-562 leukemia", "value": 0.235, "unit": "µM"},
      {"measurement": "TGI", "setting": "KM12 colon", "value": 1.58, "unit": "µM"},
      {"measurement": "TGI", "setting": "SK-MEL-2 melanoma", "value": 1.27, "unit": "µM"},
      {"measurement": "TGI", "setting": "SR leukemia", "value": 0.728, "unit": "µM"},
      {"measurement": "TGI", "setting": "SW-620 colon", "value": 0.67, "unit": "µM"}
    ]},
    {"smiles": "C#C[C@]1(O)CC[C@H]2[C@@H]3CCc4cc(OC(=O)c5cccc6cc7ccccc7nc56)ccc4[C@H]3CC[C@@]21C", "values": [
      {"measurement": "TGI", "setting": "A498 renal", "value": "> 100", "unit": "µM"},
      {"measurement": "TGI", "setting": "ACHN renal", "value": "> 100", "unit": "µM"},
      {"measurement": "TGI", "setting": "CAKI-1 renal", "value": 65.1, "unit": "µM"},
      {"measurement": "TGI", "setting": "HCC-2998 colon", "value": "> 100", "unit": "µM"},
      {"measurement": "TGI", "setting": "HCT-15 colon", "value": "> 100", "unit": "µM"},
      {"measurement": "TGI", "setting": "HOP-62 NSCLC", "value": "> 100", "unit": "µM"},
      {"measurement": "TGI", "setting": "K-562 leukemia", "value": "> 100", "unit": "µM"},
      {"measurement": "TGI", "setting": "KM12 colon", "value": 50.6, "unit": "µM"},
      {"measurement": "TGI", "setting": "SK-MEL-2 melanoma", "value": "> 100", "unit": "µM"},
      {"measurement": "TGI", "setting": "SR leukemia", "value": "> 100", "unit": "µM"},
      {"measurement": "TGI", "setting": "SW-620 colon", "value": "> 100", "unit": "µM"}
    ]},
    {"smiles": "COc1ccc(N=C(Nc2ccc(OC)cc2)C(=Nc2ccc(OC)cc2)Nc2ccc(OC)cc2)cc1", "values": [
      {"measurement": "TGI", "setting": "A498 renal", "value": "> 100", "unit": "µM"},
      {"measurement": "TGI", "setting": "ACHN renal", "value": "> 100", "unit": "µM"},
      {"measurement": "TGI", "setting": "CAKI-1 renal", "value": "> 100", "unit": "µM"},
      {"measurement": "TGI", "setting": "HCC-2998 colon", "value": "> 100", "unit": "µM"},
      {"measurement": "TGI", "setting": "HCT-15 colon", "value": "> 100", "unit": "µM"},
      {"measurement": "TGI", "setting": "HOP-62 NSCLC", "value": "> 100", "unit": "µM"},
      {"measurement": "TGI", "setting": "K-562 leukemia", "value": "> 100", "unit": "µM"},
      {"measurement": "TGI", "setting": "KM12 colon", "value": "> 100", "unit": "µM"},
      {"measurement": "TGI", "setting": "SK-MEL-2 melanoma", "value": "> 100", "unit": "µM"},
      {"measurement": "TGI", "setting": "SR leukemia", "value": "> 100", "unit": "µM"},
      {"measurement": "TGI", "setting": "SW-620 colon", "value": "> 100", "unit": "µM"}
    ]},
    {"smiles": "O=[N+]([O-])c1cccnc1NCC1(CO)CC(Cc2ccccc2)C1", "note": "(centres undefined)", "values": [
      {"measurement": "TGI", "setting": "A498 renal", "value": "> 100", "unit": "µM"},
      {"measurement": "TGI", "setting": "ACHN renal", "value": "> 100", "unit": "µM"},
      {"measurement": "TGI", "setting": "CAKI-1 renal", "value": "> 100", "unit": "µM"},
      {"measurement": "TGI", "setting": "HCC-2998 colon", "value": "> 100", "unit": "µM"},
      {"measurement": "TGI", "setting": "HCT-15 colon", "value": "> 100", "unit": "µM"},
      {"measurement": "TGI", "setting": "HOP-62 NSCLC", "value": "> 100", "unit": "µM"},
      {"measurement": "TGI", "setting": "K-562 leukemia", "value": "> 100", "unit": "µM"},
      {"measurement": "TGI", "setting": "KM12 colon", "value": "> 100", "unit": "µM"},
      {"measurement": "TGI", "setting": "SK-MEL-2 melanoma", "value": "> 100", "unit": "µM"},
      {"measurement": "TGI", "setting": "SR leukemia", "value": "> 100", "unit": "µM"},
      {"measurement": "TGI", "setting": "SW-620 colon", "value": "> 100", "unit": "µM"}
    ]},
    {"smiles": "CSc1ccc(/C=C2\\N=C(c3ccccc3)N(c3nc4ccc(Sc5ccccc5)cc4[nH]3)C2=O)cc1", "values": [
      {"measurement": "TGI", "setting": "A498 renal", "value": 62, "unit": "µM"},
      {"measurement": "TGI", "setting": "ACHN renal", "value": "> 100", "unit": "µM"},
      {"measurement": "TGI", "setting": "CAKI-1 renal", "value": "> 94", "unit": "µM"},
      {"measurement": "TGI", "setting": "HCC-2998 colon", "value": 38.2, "unit": "µM"},
      {"measurement": "TGI", "setting": "HCT-15 colon", "value": "> 86.2", "unit": "µM"},
      {"measurement": "TGI", "setting": "HOP-62 NSCLC", "value": 65.9, "unit": "µM"},
      {"measurement": "TGI", "setting": "K-562 leukemia", "value": 66.4, "unit": "µM"},
      {"measurement": "TGI", "setting": "KM12 colon", "value": 52, "unit": "µM"},
      {"measurement": "TGI", "setting": "SK-MEL-2 melanoma", "value": 37, "unit": "µM"},
      {"measurement": "GI50", "setting": "SR leukemia", "value": 13.7, "unit": "µM"},
      {"measurement": "TGI", "setting": "SR leukemia", "value": "> 87.5", "unit": "µM"},
      {"measurement": "TGI", "setting": "SW-620 colon", "value": 52.5, "unit": "µM"}
    ]},
    {"smiles": "CCC(CCCC[C@@H]1CC[C@H]2CC(=O)C[C@@H]12)OC", "note": "(some centres undefined)", "values": [
      {"measurement": "TGI", "setting": "A498 renal", "value": "> 100", "unit": "µM"},
      {"measurement": "TGI", "setting": "ACHN renal", "value": "> 100", "unit": "µM"},
      {"measurement": "TGI", "setting": "CAKI-1 renal", "value": "> 100", "unit": "µM"},
      {"measurement": "TGI", "setting": "HCC-2998 colon", "value": "> 100", "unit": "µM"},
      {"measurement": "TGI", "setting": "HCT-15 colon", "value": "> 100", "unit": "µM"},
      {"measurement": "TGI", "setting": "HOP-62 NSCLC", "value": "> 100", "unit": "µM"},
      {"measurement": "TGI", "setting": "K-562 leukemia", "value": "> 100", "unit": "µM"},
      {"measurement": "TGI", "setting": "KM12 colon", "value": "> 100", "unit": "µM"},
      {"measurement": "TGI", "setting": "SK-MEL-2 melanoma", "value": "> 100", "unit": "µM"},
      {"measurement": "TGI", "setting": "SR leukemia", "value": "> 100", "unit": "µM"},
      {"measurement": "TGI", "setting": "SW-620 colon", "value": "> 100", "unit": "µM"}
    ]}
  ]
}
